In patent US4128638A, “Nona- and deca-peptide amide derivatives demonstrating high ovulation inducing activity” (ICI Australia Limited, priority 1975, dated 1978):
Where a SMILES comes first, the peptide text is derived from it. [ ]: non-standard residue; d: D form. pGlu = O=C1CC[C@@H](C(=O)O)N1

How the values were obtained:
[1] = test system: androgen-sterilized, constant-oestrous rats; assay: Ovulation induction in androgen-sterilized, constant-oestrous rats; assay type: in vivo; conditions: intravenous dose/rat 0.25 μg
Source text: This activity is exemplified in the table below:

[2] = test system: LH release from the pituitary gland of ovariectomized ewes; assay: Bioassay for LH release in ovariectomized ewes (plasma LH by radioimmunoassay); assay type: in vivo; conditions: intravenous injection
Description: Each ewe was bled twice by jugular venipuncture before administration of the analogue, to establish basal levels of LH in plasma. Following intravenous injection of the appropriate analogue dissolved in saline solution (1 ml), blood samples were collected at intervals over the next three hours, centrifuged and subjected to radioimmunoassay for LH.

SMILES	Ovulating rats/group [1]	also measured
CNC(=O)[C@@H]1CCCN1C(=O)[C@H](CCCNC(=N)N)NC(=O)[C@H](CC(C)C)NC(=O)CCNC(=O)[C@H](Cc1ccc(O)cc1)NC(=O)[C@H](CO)NC(=O)[C@H](Cc1c[nH]c2ccccc12)NC(=O)[C@H](Cc1c[nH]cn1)NC(=O)[C@@H]1CCC(=O)N1 [β-Ala^6 -des-Gly^10 -LHRH methylamide, L-Pyroglutamyl-L-histidyl-L-tryptophanyl-L-seryl-L-tyrosyl-β-alanyl-L- leucyl-L-arginyl-L-proline N-methylamide]	3/3	–
CCNC(=O)[C@@H]1CCCN1C(=O)[C@H](CCCNC(=N)N)NC(=O)[C@H](CC(C)C)NC(=O)CCNC(=O)[C@H](Cc1ccc(O)cc1)NC(=O)[C@H](CO)NC(=O)[C@H](Cc1c[nH]c2ccccc12)NC(=O)[C@H](Cc1c[nH]cn1)NC(=O)[C@@H]1CCC(=O)N1 [β-Ala^6 des-Gly^10 -FHRH ethylamide, L-Pyroglutamyl-L-histidyl-L-tryptophanyl-L-seryl-L-tyrosyl-β-alanyl-L- leucyl-L-arginyl-L-proline N-ethylamide]	3/3	–
CC(C)C[C@H](NC(=O)CCNC(=O)[C@H](Cc1ccc(O)cc1)NC(=O)[C@H](CO)NC(=O)[C@H](Cc1c[nH]c2ccccc12)NC(=O)[C@H](Cc1c[nH]cn1)NC(=O)[C@@H]1CCC(=O)N1)C(=O)N[C@@H](CCCNC(=N)N)C(=O)N1CCC[C@H]1C(=O)NCC(N)=O [Example 1, L-Pyroglutamyl-L-histidyl-L-tryptophanyl-L-seryl-L-tyrosyl-β-alanyl-L- leucyl-L-arginyl-L-prolyl-glycinamide]	–	P* (maximal release of LH by the LHRH analogue at a given dose expressed as a percentage of the LH release by LHRH at the same dose) ([2]; dose 2.5 μg): 97%; P* (maximal release of LH by the LHRH analogue at a given dose expressed as a percentage of the LH release by LHRH at the same dose) ([2]; dose 25 μg): 108%
CC(C)C[C@H](NC(=O)CNC(=O)[C@H](Cc1ccc(O)cc1)NC(=O)[C@H](CO)NC(=O)[C@H](Cc1c[nH]c2ccccc12)NC(=O)[C@H](Cc1c[nH]cn1)NC(=O)[C@@H]1CCC(=O)N1)C(=O)N[C@@H](CCCNC(=N)N)C(=O)N1CCC[C@H]1C(=O)NCCC(N)=O [Example 2, L-Pyroglutamyl-L-histidyl-L-tryptophanyl-L-seryl-L-tyrosylglycyl-L-leucyl-L-arginyl-L-prolyl-β-alaninamide]	–	P* (maximal release of LH by the LHRH analogue at a given dose expressed as a percentage of the LH release by LHRH at the same dose) ([2]; dose 5 μg): 12%; P* (maximal release of LH by the LHRH analogue at a given dose expressed as a percentage of the LH release by LHRH at the same dose) ([2]; dose 50 μg): 75%
CC(C)C[C@H](NC(=O)CCNC(=O)[C@H](Cc1ccc(O)cc1)NC(=O)[C@H](CO)NC(=O)[C@H](Cc1c[nH]c2ccccc12)NC(=O)[C@H](Cc1c[nH]cn1)NC(=O)[C@@H]1CCC(=O)N1)C(=O)N[C@@H](CCCNC(=N)N)C(=O)N1CCC[C@H]1C(=O)N1CCCC1 [β-Ala^6 -des-Gly^10 -LHRH pyrrolidide, L-Pyroglutamyl-L-histidyl-L-tryptophanyl-L-seryl-L-tyrosyl-β-alanyl-L- leucyl-L-arginyl-L-proline pyrrolidide]	3/3	–
CCCNC(=O)[C@@H]1CCCN1C(=O)[C@H](CCCNC(=N)N)NC(=O)[C@H](CC(C)C)NC(=O)CCNC(=O)[C@H](Cc1ccc(O)cc1)NC(=O)[C@H](CO)NC(=O)[C@H](Cc1c[nH]c2ccccc12)NC(=O)[C@H](Cc1c[nH]cn1)NC(=O)[C@@H]1CCC(=O)N1 [β-Ala^6 -des-Gly^10 -LHRH n-propylamide, L-pyroglutamyl-L-histidyl-L-tryptophanyl-L-seryl-L-tyrosyl-β-alanyl-L- leucyl-L-arginyl-L-proline N-n-propylamide]	5/6	–
CC(C)C[C@H](NC(=O)CNC(=O)[C@H](Cc1ccc(O)cc1)NC(=O)[C@H](CO)NC(=O)[C@H](Cc1c[nH]c2ccccc12)NC(=O)[C@H](Cc1c[nH]cn1)NC(=O)[C@@H]1CCC(=O)N1)C(=O)N[C@@H](CCCNC(=N)N)C(=O)N1CCC[C@H]1C(=O)N(C)CC(N)=O [Example 3, L-Pyroglutamyl-L-histidyl-L-tryptophanyl-L-seryl-L-tyrosylglycyl-L-leucyl-L-arginyl-L-prolysarcosinamide]	–	P* (maximal release of LH by the LHRH analogue at a given dose expressed as a percentage of the LH release by LHRH at the same dose) ([2]; dose 5 μg): 70%; P* (maximal release of LH by the LHRH analogue at a given dose expressed as a percentage of the LH release by LHRH at the same dose) ([2]; dose 50 μg): 45%
CC[C@H](C)[C@H](NC(=O)[C@@H](C)NC(=O)[C@H](Cc1ccc(O)cc1)NC(=O)[C@H](CO)NC(=O)[C@H](Cc1c[nH]c2ccccc12)NC(=O)[C@H](Cc1c[nH]cn1)NC(=O)[C@@H]1CCC(=O)N1)C(=O)N[C@@H](CCCNC(=N)N)C(=O)N1CCC[C@H]1C(=O)NCC(N)=O [D-Ala^6 -Ile^7 -LHRH, L-Pyroglutamyl-L-histidyl-L-tryptophanyl-L-seryl-L-tyrosyl-D-alanyl-L-isoleucyl-L-arginyl-L-prolyl-glycinamide] ([pGlu]HWSY[dA]IRPG-NH2)	3/3	–
CC(C)[C@H](NC(=O)[C@@H](C)NC(=O)[C@H](Cc1ccc(O)cc1)NC(=O)[C@H](CO)NC(=O)[C@H](Cc1c[nH]c2ccccc12)NC(=O)[C@H](Cc1c[nH]cn1)NC(=O)[C@@H]1CCC(=O)N1)C(=O)N[C@@H](CCCNC(=N)N)C(=O)N1CCC[C@H]1C(=O)NCC(N)=O [D-Ala^6 -Val^7 -LHRH, L-pyroglutamyl-L-histidyl-L-tryptophanyl-L-seryl-L-tyrosyl-D-alanyl-L-valyl-L-arginyl-L-prolylglycinamide] ([pGlu]HWSY[dA]VRPG-NH2)	3/3	–
